In patent US20030138374A1, “Image diagnosis probe based on substituted azobenzene or analogue thereof for disease attributable to amyloid accumulation and composition for image diagnosis containing the same” (priority 2000, published 2003):
Counter-ions that a name gives are not always drawn.

Experiments:
amyloid β protein = target: T1, amyloid β protein (Homo sapiens, UniProt P05067); assay: β structure recognition of amyloid β protein (thioflavin T fluorescence); format: binding; settings: for β Structure recognition (%) / β structure recognition (%) at 1 µM: test compound 1 μM, thioflavin T 3 μM, average of duplicated experiments; for β structure recognition (%) at 1 µM: read-out: β Structure recognition (%); for β structure recognition (in words): comment on Table I
T1 construct: the amyloid β protein (purchased from Peptide Laboratory) was dissolved in a potassium phosphate buffer (pH7.4); purchased Peptide Laboratory
T1 sequence (P05067 672-711 limits assumed): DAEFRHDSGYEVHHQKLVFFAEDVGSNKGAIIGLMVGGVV
Procedure: (1) Method of Quantifying the Amyloid β Protein Having β Sheet Structure—method of Measuring of Recognition of β Structure in a Test Compound
Then, each 100 microliters of thioflavin T (which emits fluorescence depending on an extent of β structure of the amyloid β protein) dissolved in a glycine-NaOH buffer (pH 8.5) was added (final concentration 3 μM), and the fluorescence was immediately measured with a fluorescent microplate reader (manufactured by Molecular Device, Model fmax) at an excitation wavelength of 442 nm and a measurement wavelength of 485 nm. When the fluorescence of thioflavin alone was regarded as A, the fluorescence under the coexistence of the amyloid β protein and thioflavin T was regarded as B, and the fluorescence under the coexistence of the amyloid β protein, thioflavin T and a test compound was regarded as C, the recognition of β structure for the test compound was calculated by the following formula (unless otherwise indicated, the concentration of a test compound was 1 μM):
β structure recognition for test compound (%)={(B−C)/(B−A)}×100

[1] = Distribution coefficient between water/1-octanol; format: physicochemical; settings: for Distribution coefficient: 1-octanol / phosphate buffer (pH 7.3) or ultra-pure water; for Distribution coefficient (in words): comment on Table I
Procedure: As an oily phase, 1-octanol was used and, as an aqueous phase, a phosphate buffer (pH 7.3) or ultra-pure water was used. A suitable amount of a test compound was dissolved in an oily phase or an aqueous phase, and both phases were placed in the same test tube, and shaken vigorously at room temperature for 30 minutes. After allowing to stand at room temperature over 1 hour, centrifugation at 2000 rpm for 10 minutes was carried out, followed by further standing at room temperature for 1 hour. The aqueous phase and the oily phase were sampled, respectively, and transferred to a 96-well microplate. By using a microplate reader (manufactured by Molecular Device, Model Spectramax 250), the absorbance was measured at a maximum absorbing wavelength for each test compound, and the concentration of the test compound was calculated from a calibration curve previously obtained. A distribution coefficient was calculated by the following formula. Distribution coefficient for test compound =(concentration of test compound in oily phase)/(concentration of test compound in aqueous phase) As the distribution coefficient becomes larger, it can be said that the blood-brain barrier permeability for the test compound is higher.

| Compound | β structure recognition (%) at 1 µM (amyloid β protein) [%] | also measured |
| --- | --- | --- |
| CCN(CC)c1ccc(/N=N/c2ccc(Br)cn2)c(O)c1 [BF-020] |  | β Structure recognition (%) (amyloid β protein): 84.4% |
| CCN(CC)c1ccc(/N=C/c2ccc(N(CC)CC)cc2O)cc1 [BF-021] |  | Distribution coefficient [1]: 30; Distribution coefficient (in words) [1]: high distribution coefficients; β Structure recognition (%) (amyloid β protein): 70.8% |
| CCOc1ccc(/N=C/c2ccc(N(C)C)cc2)cc1.Cl [BF-034] |  | β Structure recognition (%) (amyloid β protein): 19.7% |
| CN(C)c1ccc(/C=N/c2ccc(F)cc2)cc1.Cl [BF-035] |  | β Structure recognition (%) (amyloid β protein): 5.6% |
| O.O.O.O.O.O=C([O-])c1cc(N=Nc2ccc(-c3ccc(N=Nc4ccc(O)c(C(=O)[O-])c4)cc3)cc2)ccc1O.[Na+].[Na+] [Chrysamine G 2Na.5H2O, reference compound] |  | Distribution coefficient [1]: 2.7; β Structure recognition (%) (amyloid β protein): 84.5% |
| O=C(O)c1cc(/C=C/c2ccc(/C=C/c3ccc(O)c(C(=O)O)c3)cc2)ccc1O [Compound X34, 1,4-bis[2-(3-carboxy-4-hydroxyphenyl)eten-yl]-benzene, reference compound] | 73.9 | Distribution coefficient [1]: 3.4 |
| O=C([O-])c1cc(/C=C/c2ccc(/C=C/c3ccc(O)c(C(=O)[O-])c3)cc2)ccc1O.[Na+].[Na+] [Compound X34.2Na, reference compound] |  | Distribution coefficient [1]: 2.7; β Structure recognition (%) (amyloid β protein): 74.0% |
| Cc1cc(N(C)C)ccc1/N=N/c1ccccc1 [SA-135, 4-dimethylamino-2-methyl-azobenzene] | 42.8 |  |
| Nc1ccc(/N=N/c2ccccc2)cc1 [SA-138, 4-phenyl azoaniline HCl salt] | 35.9 |  |
| Nc1ccc(/N=N/c2ccccc2)cc1 [SA-148, 4-phenyl azoaniline] |  | β Structure recognition (%) (amyloid β protein): 28.0% |
| CN(C)c1ccc(/N=N/c2ccc(S(=O)(=O)Cl)cc2)cc1 [SA-188, 4-(dimethylamino) azobenzene-4′-sulfonylchloride] | 62.7 |  |
| Nc1ccc(/N=N/c2cccc3ccccc23)c(N)c1 [SA-201, Fat Brown RR] | 73 |  |
| CC[n+]1ccccc1/C=C/c1ccc(N(C)C)cc1 [SA-212, 2-(4-(dimethylamino)stylyl)-1-ethyl pyridinium iodide] | 46 |  |
| CN(C)c1ccc(C=Cc2cccc[n+]2C)cc1.[I-] [SA-213, 2-(4-(dimethylamino)stylyl)-1-methyl pyridinium iodide] |  | β Structure recognition (%) (amyloid β protein): 50.7% |
| CN(C)c1ccc(N=Nc2ccccn2)cc1 [SA-215, 4-(2-pyridylazo)-N,N-dimethylaniline] | 69.1 | Distribution coefficient [1]: >100; Distribution coefficient (in words) [1]: highest distribution coefficient; β structure recognition (in words) (amyloid β protein): relatively high recognition of β structure |
| CN(C)c1ccc(C=Cc2cccc[n+]2C)cc1.[I-] [SA-247, 2-(4-(dimethylamino)stylyl)-1-metyl pyridinium iodide] |  | β Structure recognition (%) (amyloid β protein): 19.5% |
| Nc1ccc(SSc2ccc(N)cc2)cc1 [SA-260, 4-aminophenyldisulfide] | 83.1 | β structure recognition (in words) (amyloid β protein): highly recognize β structure |
| CN(C)c1ccc(/C=C/c2ccccn2)cc1 [SA-271] | 53 |  |
| CCOc1ccc(/N=C/c2ccc(N(C)C)cc2)cc1 [SA-399, N-(4-(dimethylamino)benzylidene)-p-phenetidine] | 23.1 |  |
| CN(C)c1ccc(/C=N/c2ccc(F)cc2)cc1 [SA-407, N-(4-(dimethylamino)benzylidene)-4-fluoroaniline] | 6.8 |  |
| CCN(CC)c1ccc(/C=C/c2cc[n+](C)cc2)cc1 [SA-445] | 71.2 |  |
| CN(C)c1ccc(/N=N/c2ccc(NC(=O)CI)cc2)cc1 [SA-446, N-(4-dimethylamino) azobenzene-4′-iodoacetamide] | 52.4 |  |
| CN(C)c1ccc(/N=N/c2ccc(N)cc2)cc1 [SA-512, N,N-dimethyl-4,4′-azodianiline] | 68.2 |  |
| CN(C)c1ccc(/C=N/c2cc3c(ccc4ccccc43)cn2)cc1 [SA-672, benzo(F) isoquinoline-2-yl-(4-dimethylaminobenzylidene)-amine] | 39.3 |  |

The next lines start with results.

| β structure recognition (%) at 1 µM (amyloid β protein) [%] | Compound | also measured |
| --- | --- | --- |
| 27.8 | CN(C)c1ccc(/N=C2/C=CC(=O)c3ccccc32)cc1 [BF-022] |  |
| 7.6 | CN(C)c1ccc(/C=N/c2ccc(O)cc2)cc1 [BF-033] |  |
| 85 | CCN(CC)c1ccc(/N=N/c2ccc(N(C)C)cc2)c(NC(N)=O)c1 [BF-055] |  |
| 78.5 | CCN(CC)c1ccc(/C=C/c2cccc(/C=C/c3ccc(N(CC)CC)cc3)[n+]2C)cc1 [BF-064] | Distribution coefficient [1]: 87; Distribution coefficient (in words) [1]: high distribution coefficients; β structure recognition (in words) (amyloid β protein): highly recognize β structure |
| 21.6 | CN(C)c1ccc(SSc2ccc(N(C)C)cc2)cc1 [Compound N-200] |  |
| 62.2 | CN(C)c1ccc(/N=N/c2ccc(S(=O)(=O)O)cc2)cc1 [SA-125, Methyl Orange] | Distribution coefficient [1]: 1 |
| 65.4 | CCN(CC)c1ccc(/N=N/c2ccccc2)cc1 [SA-134, 4-(diethylamino) azobenzene] |  |
| 30.7 | CCN(CC)c1ccc(/N=N/c2ccc(S(=O)(=O)O)cc2)cc1 [SA-163, Ethyl Orange Na salt] |  |
| 91.9 | CC[n+]1c(/C=C/c2ccc(N(C)C)cc2)ccc2ccccc21 [SA-169, Quinaldine Red] | Distribution coefficient [1]: 18; β structure recognition (in words) (amyloid β protein): highly recognize β structure |
| 58 | Nc1ccc(/N=N/c2ccc([N+](=O)[O-])cc2)cc1 [SA-180, Disprese Orange 3] |  |
| 86.9 | CN(C)c1ccc(/C=C/c2ccc3ccccc3[n+]2C)cc1 [SA-245, 2-(4-(dimethylamino)stylyl)-1-methyl quinolinium iodide] | Distribution coefficient [1]: 10; β structure recognition (in words) (amyloid β protein): highly recognize β structure |
| 36 | Nc1ccc(/C=C/c2ccc(N)cc2)cc1 [SA-324, 4,4′-diaminostylbene (2HCl salt)] |  |
| 43.3 | Nc1c(SSc2ccc3ccccc3c2N)ccc2ccccc12 [SA-366, 2,2′-dithiobis(1-naphthylamine)] |  |
| 35.7 | CN(C)c1ccc(N=Nc2ccc(N)cc2Cl)cc1 [SA-376, Disperse Black 7] |  |
| 7.9 | CCc1ccc(/N=C/c2ccc(N(C)C)cc2)cc1 [SA-408, N-(4-(dimethylamino)benzylidene)-4-ethylaniline] |  |
| 38.4 | COc1cc(N=Nc2ccc(N)cc2)c(C)cc1N [SA-419, 4,4′diamino-5-methoxy-2-methyl azobenze] |  |
| 71.6 | CCN(CC)c1ccc(N=Nc2ccc(N(C)C)cc2)c(NC(N)=O)c1 [SA-420, 4-(diethylamino)-4′-(dimethylamino)-2-(ureido)azobenzene] | β structure recognition (in words) (amyloid β protein): highly recognize β structure |
| 53.5 | CN(C)c1ccc(/N=N/c2ccc(C(=O)O)cc2)cc1 [SA-606] |  |
| 33.9 | CCN(CC)c1ccc(/C=N/c2ccccc2)cc1 [SA-757, N-(4-(diethylamino)benzylidene) aniline] |  |
| 46.5 | CN(C)c1ccc(/N=C/c2ccccc2)cc1 [SA-758, N-benzylidene-N′,N′-dimethylbenzene-1,4-diamine] |  |
| 25.4 | CN(C)c1ccc(/C=C/c2ccc3ccccc3n2)cc1 [SA-770, 2-(4-(dimethylamino)stylyl) quinoline] |  |
